According to US7495104B2, “Quinoline or quinazoline derivatives inhibiting auto-phosphorylation of fibroblast growth factor receptors” (Kirin Beer Kabushiki Kaisha, priority 2001, dated 2009):

Target: Bek (Homo sapiens, UniProt P21802)
Test: Inhibitory activity against Bek-autophosphorylation using ELISA method in OCUM-2MD3 cells
Format: cell-based
Conditions: 1 hr with compound, read-out: IC50 (concentration necessary for inhibiting 50% of Bek-phosphorylation)
How it was run: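 OCUM-2MD3 human scirrhous gastric cancer cells in 0.1% FCS were exposed to compound for 1 hr at 37° C, then lysed. Phospho-tyrosine proteins were captured with anti-phosphotyrosine antibody, probed with anti-Bek antibody and peroxidase read-out (A450). Positive control (1000 nM) set 0%, untreated 100%; IC50 from multi-level dilutions.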

Bek, sequence (P21802 431-767 limits assumed): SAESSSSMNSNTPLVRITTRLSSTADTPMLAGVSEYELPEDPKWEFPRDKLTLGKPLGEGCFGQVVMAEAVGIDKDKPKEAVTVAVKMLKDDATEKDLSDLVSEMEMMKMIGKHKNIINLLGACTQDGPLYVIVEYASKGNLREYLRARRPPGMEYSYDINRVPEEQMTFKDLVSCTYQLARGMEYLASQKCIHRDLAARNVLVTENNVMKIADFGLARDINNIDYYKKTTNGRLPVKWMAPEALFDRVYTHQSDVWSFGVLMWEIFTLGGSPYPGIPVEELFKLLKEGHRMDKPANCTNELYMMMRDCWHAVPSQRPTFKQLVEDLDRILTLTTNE

Row | IC50 [nM] | Compound
1 | 19.8 | COc1cc2c(Oc3ccc(NC(=O)NCCC(C)(C)C)cc3F)ccnc2cc1OCCN1CCC(O)CC1 [Compound 296, 1-(3,3-Dimethyl-butyl)-3-(3-fluoro-4-{7-[2-(4-hydroxy-piperidin-1-yl)-ethoxy]-6-methoxy-quinolin-4-yloxy}-phenyl)-urea]
2 | 42.4 | COc1cc2c(Oc3ccc(NC(=O)NCCC(C)(C)C)cc3F)ccnc2cc1OCCN1CCC(CCO)CC1 [Compound 297, 1-(3,3-Dimethyl-butyl)-3-[3-fluoro-4-(7-{2-[4-(2-hydroxy-ethyl)-piperidin-1-yl]-ethoxy}-6-methoxy-quinolin-4-yloxy)-phenyl]-urea]
3 | 41.7 | COc1cc2c(Oc3ccc(NC(=O)NCCC(C)(C)C)cc3F)ccnc2cc1OCCCN1CCC(CCO)CC1 [Compound 298, 1-(3,3-Dimethyl-butyl)-3-[3-fluoro-4-(7-{3-[4-(2-hydroxy-ethyl)-1-piperidin-1-yl]-propoxy}-6-methoxy-quinolin-4-yloxy)-phenyl]-urea]
4 | 27.4 | COc1cc2c(Oc3ccc(NC(=O)NCCC(C)(C)C)c(F)c3)ccnc2cc1OCCN1CCC(O)CC1 [Compound 299, 1-(3,3-Dimethyl-butyl)-3-(2-fluoro-4-{7-[2-(4-hydroxy-piperidin-1-yl)-ethoxy]-6-methoxy-quinolin-4-yloxy}-phenyl)-urea]
5 | 22.7 | COc1cc2c(Oc3ccc(NC(=O)NCCC(C)(C)C)c(F)c3)ccnc2cc1OCCN1CCC(CO)CC1 [Compound 300, 1-(3,3-Dimethyl-butyl)-3-(2-fluoro-4-{7-[2-(4-hydroxymethyl-piperidin-1-yl)-ethoxy]-6-methoxy-quinolin-4-yloxy}-phenyl)-urea]
6 | 38.4 | COc1cc2c(Oc3ccc(NC(=O)NCCC(C)(C)C)c(F)c3)ccnc2cc1OCCN1CCC(CCO)CC1 [Compound 301, 1-(3,3-Dimethyl-butyl)-3-[2-fluoro-4-(7-{2-[4-(2-hydroxy-ethyl)-piperidin-1-yl]-ethoxy}-6-methoxy-quinolin-4-yloxy)-phenyl]-urea]
7 | 26.6 | COc1cc2c(Oc3ccc(NC(=O)NCCC(C)(C)C)c(F)c3)ccnc2cc1OCCCN1CCC(O)CC1 [Compound 302, 1-(3,3-Dimethyl-butyl)-3-(2-fluoro-4-{7-[3-(4-hydroxy-piperidin-1-yl)-propoxy]-6-methoxy-quinolin-4-yloxy}-phenyl)-urea]
8 | 22 | COc1cc2c(Oc3ccc(NC(=O)NCCC(C)(C)C)c(F)c3)ccnc2cc1OCCCN1CCC(CO)CC1 [Compound 303, 1-(3,3-Dimethyl-butyl)-3-(2-fluoro-4-{7-[3-(4-hydroxymethyl-piperidin-1-yl)-propoxy]-6-methoxy-quinolin-4-yloxy}-phenyl)-urea]
9 | 31.2 | COc1cc2c(Oc3ccc(NC(=O)NCCC(C)(C)C)c(F)c3)ccnc2cc1OCCCN1CCC(CCO)CC1 [Compound 304, 1-(3,3-Dimethyl-butyl)-3-[2-fluoro-4-(7-{3-[4-(2-hydroxy-ethyl)-piperidin-1-yl]-propoxy}-6-methoxy-quinolin-4-yloxy)-phenyl]-urea]
10 | 359 | COc1cc2c(Oc3ccc(Nc4ccc(C(C)(C)C)cc4)c(F)c3)ccnc2cc1OCCN1CCC(CCO)CC1 [Compound 305, 2-[1-(2-{4-[4-(4-Tert-butyl-phenylamino)-3-fluoro-phenoxy]-6-methoxy-quinolin-7-yloxy}-ethyl)-piperidin-4-yl]-ethanol]
11 | 286 | COc1cc2c(Oc3ccc(Nc4ccc(C(C)(C)C)cc4)c(F)c3)ccnc2cc1OCCCN1CCC(CCO)CC1 [Compound 306, 2-[1-(3-{4-[4-(4-Tert-butyl-phenylamino)-3-fluoro-phenoxy]-6-methoxy-quinolin-7-yloxy}-propyl)-piperidin-4-yl]-ethanol]
12 | 379 | COc1cc2c(Oc3ccc(Nc4ccc(C(C)(C)C)cc4)cc3Cl)ccnc2cc1OCCN1CCC(O)CC1 [Compound 307, 1-(2-{4-[4-(4-Tert-butyl-phenylamino)-2-chloro-phenoxy]-6-methoxy-quinolin-7-yloxy}-ethyl)-piperidin-4-ol]
13 | 204 | COc1cc2c(Oc3ccc(Nc4ccc(C(C)(C)C)cc4)cc3Cl)ccnc2cc1OCCN1CCC(CO)CC1 [Compound 308, [1-(2-{4-[4-(4-Tert-butyl-phenylamino)-2-chloro-phenoxy]-6-methoxy-quinolin-7-yloxy}-ethyl)-piperidin-4-yl]-methanol]
14 | 211 | COc1cc2c(Oc3ccc(Nc4ccc(C(C)(C)C)cc4)cc3Cl)ccnc2cc1OCCCN1CCC(O)CC1 [Compound 309, 1-(3-{4-[4-(4-Tert-butyl-phenylamino)-2-chloro-phenoxy]-6-methoxy-quinolin-7-yloxy}-propyl)-piperidin-4-ol]
15 | 184 | COc1cc2c(Oc3ccc(Nc4ccc(C(C)(C)C)cc4)cc3Cl)ccnc2cc1OCCCN1CCC(CO)CC1 [Compound 310, [1-(3-{4-[4-(4-Tert-butyl-phenylamino)-2-chloro-phenoxy]-6-methoxy-quinolin-7-yloxy}-propyl)-piperidin-4-yl]-methanol]
16 | 23.1 | COc1cc2c(Oc3ccc(NC(=O)NCCC(C)(C)C)cc3Cl)ccnc2cc1OCCN1CCC(O)CC1 [Compound 311, 1-(3-Chloro-4-{7-[2-(4-hydroxy-piperidin-1-yl)-ethoxy]-6-methoxy-quinolin-4-yloxy}-phenyl)-3-(3,3-dimethyl-butyl)-urea]
17 | 20.5 | COc1cc2c(Oc3ccc(NC(=O)NCCC(C)(C)C)cc3Cl)ccnc2cc1OCCN1CCC(CO)CC1 [Compound 312, 1-(3-Chloro-4-{7-[2-(4-hydroxymethyl-piperidin-1-yl)-ethoxy]-6-methoxy-quinolin-4-yloxy}-phenyl)-3-(3,3-dimethyl-butyl)-urea]
18 | 367 | COc1cc2c(Oc3ccc(Nc4ccc(C(C)(C)C)cc4)cc3Cl)ccnc2cc1OCCN1CCC(CCO)CC1 [Compound 313, 2-[1-(2-{4-[4-(4-Tert-butyl-phenylamino)-2-chloro-phenoxy]-6-methoxy-quinolin-7-yloxy}-ethyl)-piperidin-4-yl]-ethanol]
19 | 277 | COc1cc2c(Oc3ccc(Nc4ccc(C(C)(C)C)cc4)cc3Cl)ccnc2cc1OCCCN1CCC(CCO)CC1 [Compound 314, 2-[1-(3-{4-[4-(4-Tert-butyl-phenylamino)-2-chloro-phenoxy]-6-methoxy-quinolin-7-yloxy}-propyl)-piperidin-4-yl]-ethanol]
20 | 133 | COc1cc2c(Oc3ccc(NC(=O)NCCC(C)(C)C)cc3Cl)ccnc2cc1OCCN1CCC(CCO)CC1 [Compound 315, 1-[3-Chloro-4-(7-{2-[4-(2-hydroxy-ethyl)-piperidin-1-yl]-ethoxy}-6-methoxy-quinolin-4-yloxy)-phenyl]-3-(3,3-dimethyl-butyl)-urea]
21 | 85.1 | COc1cc2c(Oc3ccc(NC(=O)NCCC(C)(C)C)cc3Cl)ccnc2cc1OCCCN1CCC(CCO)CC1 [Compound 316, 1-[3-Chloro-4-(7-{3-[4-(2-hydroxy-ethyl)-piperidin-1-yl]-propoxy}-6-methoxy-quinolin-4-yloxy)-phenyl]-3-(3,3-dimethyl-butyl)-urea]
22 | 20.4 | COc1cc2c(Oc3ccc(NC(=O)NCCC(C)(C)C)c(Cl)c3)ccnc2cc1OCCCN1CC(C)OC(C)C1 (stereo not drawn) [Compound 317, 1-(2-Chloro-4-{7-[3-(2,6-dimethyl-morpholin-4-yl)-propoxy]-6-methoxy-quinolin-4-yloxy}-phenyl)-3-(3,3-dimethyl-butyl)-urea]
23 | 18.7 | COc1cc2c(Oc3ccc(NC(=O)NCCC(C)(C)C)cc3Cl)ccnc2cc1OCCCN1CCOCC1 [Compound 318, 1-{3-Chloro-4-[6-methoxy-7-(3-morpholin-4-yl-propoxy)-quinolin-4-yloxy]-phenyl}-3-(3,3-dimethyl-butyl)-urea]
24 | 22 | COc1cc2c(Oc3ccc(NC(=O)NCCC(C)(C)C)cc3Cl)ccnc2cc1OCCCN1CC(C)OC(C)C1 (stereo not drawn) [Compound 319, 1-(3-Chloro-4-{7-[3-(2,6-dimethyl-morpholin-4-yl)-propoxy]-6-methoxy-quinolin-4-yloxy}-phenyl)-3-(3,3-dimethyl-butyl)-urea]
25 | 247 | COc1cc2nccc(Oc3ccc(NC(=O)NCCC(C)(C)C)cc3)c2cc1OCCCN1CCC(O)CC1 [Compound 322, 1-(3,3-Dimethyl-butyl)-3-(4-{6-[3-(4-hydroxy-piperidin-1-yl)-propoxy]-7-methoxy-quinolin-4-yloxy}-phenyl)-urea]
26 | 373 | COc1cc2nccc(Oc3ccc(NC(=O)NCCC(C)(C)C)cc3)c2cc1OCCCN1CCC(CO)CC1 [Compound 323, 1-(3,3-Dimethyl-butyl)-3-(4-{6-[3-(4-hydroxymethyl-piperidin-1-yl)-propoxy]-7-methoxy-quinolin-4-yloxy}-phenyl)-urea]
27 | 287 | COc1cc2nccc(Oc3ccc(NC(=O)NCCC(C)(C)C)cc3)c2cc1OCCCN1CCC(CCO)CC1 [Compound 324, 1-(3,3-Dimethyl-butyl)-3-[4-(6-{3-[4-(2-hydroxy-ethyl)-piperidin-1-yl]-propoxy}-7-methoxy-quinolin-4-yloxy)-phenyl]-urea]
28 | 34.2 | COc1cc2c(Oc3ccc(NC(=O)NCCC(C)(C)C)c(F)c3)ccnc2cc1OCCCN1CC(C)OC(C)C1 (stereo not drawn) [Compound 325, 1-(3,3-Dimethyl-butyl)-3-(4-{7-[3-(2,6-dimethyl-morpholin-4-yl)-propoxy]-6-methoxy-quinolin-4-yloxy}-2-fluoro-phenyl)-urea]

Row | Compound | IC50 [nM]
29 | COc1cc2c(Oc3ccc(NC(=O)NCCC(C)(C)C)c(Cl)c3)ccnc2cc1OCCCCN1CCOCC1 [Compound 320, 1-{2-Chloro-4-[6-methoxy-7-(4-morpholin-4-yl-butoxy)-quinolin-4-yloxy]-phenyl}-3-(3,3-dimethyl-butyl)-urea] | 21.4
30 | COc1cc2c(Oc3ccc(NC(=O)NCCC(C)(C)C)c(Cl)c3)ccnc2cc1OCCCCN1CC(C)OC(C)C1 (stereo not drawn) [Compound 321, 1-(2-Chloro-4-{7-[4-(2,6-dimethyl-morpholin-4-yl)-butoxy]-6-methoxy-quinolin-4-yloxy}-phenyl)-3-(3,3-dimethyl-butyl)-urea] | 25.4
